For one test, the system named is T lymphocyte. The test is described as follows: Effects on generation of cytokines in ConA-activated spleen T lymphocyte (ELISA). Type of test: cell-based. The following applies: Balb/C mouse spleen cells, ConA 1 μg/ml, pre-treated 30 minutes before, 48 hours, 1, and 20 μM, FIG. 1. How it is done:
First, in order to determine effects of K6PC-9P and K6PC-9 on generation of cytokines in T lymphocyte, spleen T lymphocyte was separated, and then treated with ConA for its activation. […] Accordingly, substances that increase the expression of the Th1 cytokines or suppress the expression of the Th2 cytokines may be useful to treat the atopic dermatitis. In this experiment, the K6PC-9P and K6PC-9 were evaluated for their control abilities to express the Th1 cytokine, interleukin-2, and the Th2 cytokine, interleukin-4.
The mouse spleen was extracted from a Balb/C mouse to separate splenocyte. The separated splenocyte was plated onto a 96-well plate in a density of 1×10^6 cells/ml. Then, T lymphocyte in the splenocyte was activated with ConA (1 μg/ml). The K6PC-9P and K6PC-9 were pre-treated 30 minutes before the treatment with ConA. 48 hours after the treatment with ConA, culture supernatant was collected, and subject to the ELISA (enzyme-linked immunosorbent assay). The ELISA used an ELISA kit from a R&D system, and performed experiments, as follows. However, the method specified later is described as one example, and the method is identical over the entire procedures, but densities of antibodies and standard sample may be slightly varied depending on the kinds of cytokines to be measured. A capture antibody was diluted to a density of 0.6 μg/ml, and transferred to an ELISA plate by 100 μl, and the plate was sealed and kept overnight at a room temperature. The capture antibody was discarded, and the plate was washed three times with a wash buffer (PBS containing 0.05% Tween 20 (pH 7.4)). 200 μl of a blocking buffer (PBS containing 1% BSA, 5% sucrose and 0.05% NaN) was put into plate wells, kept at a room temperature for 1 hour, and then washed three times with a wash buffer. The collected culture supernatant and the standard sample were prepared using a dilution buffer (TBS containing 0.1% BSA and 0.05% Tween 20), put into plate wells, and then kept at a room temperature for 2 hours. The plate was washed three times with a wash buffer, and a biotinylated detection antibody was diluted with a dilution buffer to a density of 200 ng/ml, and then put into the plate wells. 2 hours after the treatment, the plate was washed three times with a wash buffer, and streptavidin HRP was added to the plate, and then kept for 20 minutes. […] When the colors were suitably developed on the plate, the reaction was stopped with a stop solution (1M H2SO4), and its absorbance was measured at wavelengths of 450 nm and 540 nm. A standard curve was plotted using the standard absorbance obtained by subtracting a 540 nm absorbance value from a 450 nm absorbance value, and a density of cytokines to be measured was calculated using the standard absorbance of the culture supernatant.

The test system of a further test is NC/Nga mouse. The test is described as follows: Atopic dermatitis caused by dust mite extract in NC/Nga mouse, ear thickness. The conditions noted are these: two kinds of dust mites (D. pteronyssinus, D. farinae), applied to ear dorsal surface 30 minutes before extract, 16 days, FIGS. 2 and 3. Format: in vivo. The text has this: Next, an animal model (NC/Nga mouse) where a mouse suffers from atopic dermatitis was used to evaluate an inflammation control effects of the K6PC-9P on the atopic dermatitis. The NC/Nga mouse is a mouse that spontaneously suffers from the dermatitis, and has been proven to be an animal model that is the most suitably used to treat atopic dermatitis. Therefore, The NC/Nga mouse has been widely used in the animal model to evaluate substances that are effective to treat the atopic dermatitis. For this experiment, a dust mite that is a representative inducer factor of the atopic dermatitis was applied to a NC/Nga mouse to induce the dermatitis.
The extract of dust mite (Dermatophagoides pteronyssinus, Dermatophagoides farinae) was commercially available from Woongbee Meditech Co. (Korea), and the dust mite extract was dissolved in 10 mg/ml of phosphate buffered saline (PBS) containing 0.5% Tween 20, and then used herein. NC/Nga mice were bred under conventional breeding conditions, and induced to develop into the atopic dermatitis. […] The […] and K6PC-9 were applied onto the ear dorsal surfaces of the mice 30 minutes before the application of the dust mite extract, and the efficiency of the therapeutic agent was evaluated for a level of an intercurrent disease by measuring a thickness of a mouse ear.

For another test, the system named is hairless mouse. The test can be described thus: Suppression of epidermal proliferation in tape-stripping hyperplasia model, epidermal thickness (H&E). Type of test: in vivo. The conditions noted are these: tape stripping twice per day for 5 days, 1% applied twice per day for 3 days, compared to the control (vehicle). The text has this:
Effects on Suppression of Epidermal Proliferation Next, in order to evaluate effects of the K6PC-9P on the skin hyperplasia that is one of the representative skin disorders in the atopic dermatitis, a hyperplasia model where a mouse has overgrown cuticles was established by repeating a tape stripping procedure on a hairless mouse in the Examples according to the present invention. This hyperplasia model was established since the atopic skin has ill-balanced conditions in the epidermal proliferation and differentiation, and particularly has an increased epidermal proliferation level, but has a pattern in which mouse epidermis grows abnormally due to the reduced differentiation level. Accordingly, to recover this ill-balanced condition into a normal state may be considered to be an important point to treat the atopic dermatitis.
Hyperplasia in the back of a hairless mouse was induced by subjecting the tape stripping procedure twice per day for 5 days, and 1% K6PC-9P was applied to the hairless mouse twice per day for 3 days from the third day to fifth day of the induction of the atopic dermatitis. Then, mouse skin tissues were biopsied and fixed into a paraffin wax, and determined for epidermal thickness using a Hematoxylin & Eosin staining method. […]

Consider two molecules from patent US20080161272A1, “Ceramide derivatives, method for preparing the same, and therapeutic agent for treating atopic dermatitis comprising the ceramide derivatives” (Neopharm Co., Ltd., priority 2006, published 2008).

On to `CCCCCCCC(=O)C(CCCCCC)C(=O)NCCO` (stereo not shown) [K6PC-9, N-ethanol-2-hexyl-3-oxo-decanamide, reference compound], for which, in the test on T lymphocyte, the “generation of the Th1 cytokine, interleukin-2” value is given as “does not affect” and the “generation of the Th2 cytokine, interleukin-4” value is “does not affect”. In the test on NC/Nga mouse, the “increase in the thickness of the mouse ear caused by dust mite extract” value is given as “slight suppression effect”.
Consider `CCCCCCCC(=O)C(CCCCCC)C(=O)NCCOP(=O)(O)O` (stereo not shown) [K6PC-9P, N-(ethyl dihydrogenphosphate)-2-hexyl-3-oxo-decanamide], for which, in the test with hairless mouse, the “growth of the mouse epidermis (epidermal thickness)” value was “suppressed significantly”. Moreover, in the test with T lymphocyte, the “generation of the Th1 cytokine, interleukin-2” value is on record as “increases” and the “generation of the Th2 cytokine, interleukin-4” value is recorded as “decreases”. Further, in the test on NC/Nga mouse, the “increase in the thickness of the mouse ear caused by dust mite extract” value is listed as “significantly suppresses”.
